Patent US10538555B2, “Macrocyclic inhibitors of the PD-1/PD-L1 and CD80(B7-1)/PD-L1 protein/protein interactions” (BRISTOL-MYERS SQUIBB COMPANY, priority 2014, dated 2020)
*1 amine or outer side, *2 acyl side, *3 side chain or, on linkers, in order; H or OH if unused. Where a SMILES comes first, the peptide text is derived from it. Bridges are numbered along the chain shown (N, C = ends). [ ]: non-standard residue; d: D form. ξ: configuration not given here. Trp(1-CH2COOH) = N[C@@H](Cc1cn(CC(=O)O)c2ccccc12)C(=O)O; Phe(3,4,5-F3) = N[C@@H](Cc1cc(F)c(F)c(F)c1)C(=O)O; NMePhe(4-F) = CN[C@@H](Cc1ccc(F)cc1)C(=O)O; Phe(4-F) = N[C@@H](Cc1ccc(F)cc1)C(=O)O; Bta = N[C@@H](Cc1csc2ccccc12)C(=O)O; Hyp = O=C(O)[C@@H]1C[C@@H](O)CN1; NMeF = CN[C@@H](Cc1ccccc1)C(=O)O; X1 = O=C([C@H]1COCCN1[*:1])[*:2]; NMehSer = CN[C@@H](CCO)C(=O)O; NMeNle = CCCC[C@H](NC)C(=O)O; dNle = CCCC[C@@H](N)C(=O)O; Pip = O=C(O)[C@@H]1CCCCN1; dPip = O=C(O)[C@H]1CCCCN1; hSer = N[C@@H](CCO)C(=O)O; NMeA = CN[C@@H](C)C(=O)O; Orn = NCCC[C@H](N)C(=O)O; Dab = NCC[C@H](N)C(=O)O; Abu = CC[C@H](N)C(=O)O; Dap = NC[C@H](N)C(=O)O; ξC = NC(CS)C(=O)O; Sar = CNCC(=O)O

biological target: T1, Human PD-L1/PD-1 (Homo sapiens, UniProt Q9NZQ7); assay: HTRF Human PD-L1/PD-1 binding assay (PD-1-Ig/PD-L1-His); details: PD-L1-His 10 nM, PD-1-Ig 20 nM; class symbol; read-out: HTRF Human PD-L1/PD-1 Binding Assay IC50 Range
T1 construct: TVMV protease cleavage site (C); made in house; host or cells: HEK293T cells
T1 sequence (Q9NZQ7 with tags, fused parts or gaps): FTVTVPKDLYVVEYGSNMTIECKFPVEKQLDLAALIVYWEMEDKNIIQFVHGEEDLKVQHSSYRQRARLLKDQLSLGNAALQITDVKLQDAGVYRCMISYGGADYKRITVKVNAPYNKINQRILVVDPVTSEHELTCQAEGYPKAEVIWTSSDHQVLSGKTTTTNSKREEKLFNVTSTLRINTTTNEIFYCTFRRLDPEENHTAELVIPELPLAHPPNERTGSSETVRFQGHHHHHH
Source text: Methods for Testing the Ability of Macrocyclic Peptides to Compete for the Binding of PD-1 to PD-L1 Using Homogenous Time-Resolved Fluorescence (HTRF) Binding Assays
The ability of the macrocyclic peptides of the present disclosure to bind to PD-L1 was investigated using a PD-1/PD-L1 Homogenous Time-Resolved Fluorescence (HTRF) binding assay.
Homogenous Time-Resolved Fluorescence (HTRF) Assays of Binding of Soluble PD-1 to Soluble PD-L1. Soluble PD-1 and soluble PD-L1 refers to proteins with carboxyl-end truncations that remove the transmembrane-spanning regions and are fused to heterologous sequences, specifically the Fc portion of the human immunoglobuling G sequence (Ig) or the hexahistidine epitope tag (His). All binding studies were performed in an HTRF assay buffer consisting of dPBS supplemented with 0.1% (w/v) bovine serum albumin and 0.05% (v/v) Tween-20. For the PD-1-Ig/PD-L1-His binding assay, inhibitors were pre-incubated with PD-L1-His (10 nM final) for 15 m in 4 μl of assay buffer, followed by addition of PD-1-Ig (20 nM final) in 1 μl of assay buffer and further incubation for 15 m. PD-L1 fusion proteins from either human, cynomolgus macaques, or mouse were used. HTRF detection was achieved using europium crypate-labeled anti-Ig monoclonal antibody (1 nM final) and allophycocyanin (APC) labeled anti-His monoclonal antibody (20 nM final). Antibodies were diluted in HTRF detection buffer and 5 μl was dispensed on top of binding reaction. The reaction was allowed to equilibrate for 30 minutes and signal (665 nm/620 nm ratio) was obtained using an EnVision fluorometer. Additional binding assays were established between PD-1-Ig/PD-L2-His (20 and 5 nM, respectively), CD80-His/PD-L1-Ig (100 and 10 nM, respectively) and CD80-His/CTLA4-Ig (10 and 5 nM, respectively). Competition studies between biotinylated Compound No. 71 and human PD-L1-His were performed as follows. Macrocyclic peptide inhibitors were pre-incubated with PD-L1-His (10 nM final) for 60 minutes in 4 μl of assay buffer followed by addition of biotinylated Compound No. 71 (0.5 nM final) in 1 μl of assay buffer. Binding was allowed to equilibrate for 30 minutes followed by addition of europium crypated labeled Streptavidin (2.5 pM final) and APC-labeled anti-His (20 nM final) in 5 μl of HTRF buffer. The reaction was allowed to equilibrate for 30 m and signal (665 nm/620 nm ratio) was obtained using an EnVision fluorometer.
Recombinant Proteins. Carboxyl-truncated human PD-1 (amino acids 25-167) with a C-terminal human Ig epitope tag [hPD-1 (25-167)-3S-IG] and human PD-L1 (amino acids 18-239) with a C-terminal His epitope tag [hPD-L1([…])-tobacco vein mottling virus protease cleavage site (TVMV)-His] were expressed in HEK293T cells and purified sequentially by rProteinA affinity chromatography and size exclusion chromatography.

Row | SMILES | IC50
1 | CCCC[C@H]1C(=O)N(C)[C@@H](CCCC)C(=O)N[C@@H](CN)C(=O)N[C@H](C(=O)NCC(N)=O)CSCC(=O)N[C@@H](Cc2ccc(O)cc2)C(=O)N(C)[C@@H](C)C(=O)N[C@@H](CC(=O)O)C(=O)N2CCC[C@H]2C(=O)N[C@@H](Cc2cnc[nH]2)C(=O)N[C@@H](CCC(N)=O)C(=O)N2C[C@H](O)C[C@H]2C(=O)N[C@@H](Cc2c[nH]c3ccccc23)C(=O)N[C@@H](CCN)C(=O)N[C@@H](Cc2cn(CC(=O)O)c3ccccc23)C(=O)N1C [Example 5238] ({CH2CO}-Y[NMeA]DPHQ[Hyp]W[Dab][Trp(1-CH2COOH)][NMeNle][NMeNle][Dap]CG-NH2; thioether N-14) | 1 to 9.9 nM
2 | CCCC[C@H]1C(=O)N(C)[C@@H](CCCC)C(=O)N[C@@H](CCC(=O)O)C(=O)N[C@H](C(=O)NCC(N)=O)CSCC(=O)N[C@@H](Cc2ccc(O)cc2)C(=O)N(C)[C@@H](C)C(=O)N[C@@H](CC(N)=O)C(=O)N2CCC[C@H]2C(=O)N[C@@H](CN)C(=O)N[C@@H](CC(C)C)C(=O)N2C[C@H](O)C[C@H]2C(=O)N[C@@H](Cc2c[nH]c3ccccc23)C(=O)N[C@@H](CO)C(=O)N[C@@H](Cc2c[nH]c3ccccc23)C(=O)N1C [Example 5165] ({CH2CO}-Y[NMeA]NP[Dap]L[Hyp]WSW[NMeNle][NMeNle]ECG-NH2; thioether N-14) | 1 to 9.9 nM
3 | CCCC[C@H]1C(=O)N(C)[C@@H](CCCC)C(=O)N[C@@H](CCN)C(=O)N[C@H](C(=O)NCC(N)=O)CSCC(=O)N[C@@H](Cc2ccc(O)cc2)C(=O)N(C)[C@@H](C)C(=O)N[C@@H](CC(N)=O)C(=O)N2CCC[C@H]2C(=O)N[C@@H](Cc2cnc[nH]2)C(=O)N[C@@H](CCC(=O)O)C(=O)N2C[C@H](O)C[C@H]2C(=O)N[C@@H](Cc2c[nH]c3ccccc23)C(=O)N[C@@H](CCN)C(=O)N[C@@H](Cc2cn(CC(=O)O)c3ccccc23)C(=O)N1C [Example 6331] ({CH2CO}-Y[NMeA]NPHE[Hyp]W[Dab][Trp(1-CH2COOH)][NMeNle][NMeNle][Dab]CG-NH2; thioether N-14) | 1 to 9.9 nM
4 | CCCC[C@H]1C(=O)N2CCC[C@@H]2C(=O)N[C@@H](CC(=O)O)C(=O)N[C@@H](C(C)C)C(=O)N(C)[C@@H](CCOC)C(=O)N[C@@H](CCC(N)=O)C(=O)N2CCC[C@@H]2C(=O)N[C@@H](Cc2c[nH]c3ccccc23)C(=O)N[C@@H](Cc2ccc(O)cc2)C(=O)N[C@@H](CC(C)C)C(=O)N[C@H](C(=O)NCC(N)=O)CSCC(=O)N[C@@H](Cc2ccc(F)cc2)C(=O)N(C)[C@@H](Cc2ccccc2)C(=O)N1C [Example 9223] ({CH2CO}-[Phe(4-F)][NMeF][NMeNle][dP]DV[NMehSer](Me)Q[dP]WYLCG-NH2; thioether N-13) | 100 to 990 nM
5 | CCCC[C@H]1C(=O)N(C)CC(=O)N[C@@H](CC(=O)O)C(=O)N[C@@H](C(C)C)C(=O)N(C)[C@@H](Cc2ccccc2)C(=O)N[C@@H](Cc2ccc(O)cc2)C(=O)N(C)CC(=O)N[C@@H](Cc2c[nH]c3ccccc23)C(=O)N[C@@H](Cc2ccc(O)cc2)C(=O)N[C@@H](CC(C)C)C(=O)N[C@H](C(=O)NCC(N)=O)CSCC(=O)N[C@@H](Cc2csc3ccccc23)C(=O)N(C)[C@@H](Cc2ccccc2)C(=O)N1C [Example 3245] ({CH2CO}-[Bta][NMeF][NMeNle][Sar]DV[NMeF]Y[Sar]WYLCG-NH2; thioether N-13) | 1000 to 10000 nM

Second part, the compound after the results:

Row | IC50 | SMILES
6 | 1 to 9.9 nM | CCCC[C@H]1C(=O)N2CCC[C@@H]2C(=O)N[C@@H](CO)C(=O)N[C@@H](C(C)C)C(=O)N(C)[C@@H](Cc2ccccc2)C(=O)N[C@@H](CCC(=O)O)C(=O)N2CCCC[C@@H]2C(=O)N[C@@H](Cc2c[nH]c3ccccc23)C(=O)N[C@@H](Cc2ccc(O)cc2)C(=O)N[C@@H](CC(C)C)C(=O)N[C@H](C(=O)NCC(N)=O)CSCC(=O)N[C@@H](Cc2cc(F)c(F)c(F)c2)C(=O)N(C)[C@@H](Cc2ccc(F)cc2)C(=O)N1C [Example 10587] ({CH2CO}-[Phe(3,4,5-F3)][NMePhe(4-F)][NMeNle][dP]SV[NMeF]E[dPip]WYLCG-NH2; thioether N-13)
7 | 10 to 99.9 nM | CCCC[C@H]1C(=O)N2CCC[C@@H]2C(=O)N[C@@H](CO)C(=O)N[C@@H](CC)C(=O)N(C)[C@@H](Cc2ccccc2)C(=O)N[C@@H](Cc2ccc(O)cc2)C(=O)N(C)CC(=O)N[C@@H](Cc2c[nH]c3ccccc23)C(=O)N[C@@H](Cc2ccc(O)cc2)C(=O)N[C@@H](CC(C)C)C(=O)N[C@H](C(=O)NCC(N)=O)CSCC(=O)N[C@@H](Cc2ccccc2)C(=O)N(C)[C@@H](Cc2ccccc2)C(=O)N1C [Example 10058] ({CH2CO}-F[NMeF][NMeNle][dP]S[Abu][NMeF]Y[Sar]WYLCG-NH2; thioether N-13)
8 | 1000 to 10000 nM | CCCC[C@H]1NC(=O)[C@H](Cc2c[nH]c3ccccc23)NC(=O)[C@H](CO)NC(=O)[C@H](Cc2c[nH]c3ccccc23)NC(=O)[C@@H]2C[C@@H](O)CN2C(=O)[C@H](CCCN)NC(=O)[C@H](Cc2cnc[nH]2)NC(=O)[C@@H]2CCCN2C(=O)[C@H](CC(=O)O)NC(=O)[C@H](C)N(C)C(=O)[C@H](Cc2ccc(O)cc2)NC(=O)CSCC(C(=O)NCC(N)=O)NC(=O)[C@H](CCC(=O)O)NC(=O)[C@H](CCCC)N(C)C1=O (stereo partly drawn) [Example 10130] ({CH2CO}-Y[NMeA]DPH[Orn][Hyp]WSW[dNle][NMeNle]E[ξC]G-NH2; thioether N-14)
9 | 1 to 9.9 nM | CCCC[C@H]1C(=O)N2CCC[C@@H]2C(=O)N[C@@H](CC(=O)O)C(=O)N[C@@H](C(C)C)C(=O)N(C)[C@@H](Cc2ccccc2)C(=O)N[C@@H](CCC(=O)O)C(=O)N2CCOC[C@@H]2C(=O)N[C@@H](Cc2c[nH]c3ccccc23)C(=O)N[C@@H](Cc2ccc(O)cc2)C(=O)N[C@@H](CCCN)C(=O)N[C@H](C(=O)NCC(N)=O)CSCC(=O)N[C@@H](Cc2cc(F)c(F)c(F)c2)C(=O)N(C)[C@@H](Cc2ccc(F)cc2)C(=O)N1C [Example 10596] ({CH2CO}-[Phe(3,4,5-F3)][NMePhe(4-F)][NMeNle][dP]DV[NMeF]E[X1]WY[Orn]CG-NH2; thioether N-13)
10 | 1000 to 10000 nM | CCCC[C@H]1C(=O)N2CCC[C@@H]2C(=O)N[C@@H](CC(=O)O)C(=O)N[C@@H](C(C)C)C(=O)N(C)[C@@H](Cc2ccccc2)C(=O)N[C@@H](CCC(=O)O)C(=O)N2CCCC[C@@H]2C(=O)N[C@H](CCC(=O)O)C(=O)N[C@@H](Cc2ccc(O)cc2)C(=O)N[C@@H](CCCN)C(=O)N[C@H](C(=O)NCC(N)=O)CSCC(=O)N[C@@H](Cc2cc(F)c(F)c(F)c2)C(=O)N(C)[C@@H](Cc2ccc(F)cc2)C(=O)N1C [Example 10608] ({CH2CO}-[Phe(3,4,5-F3)][NMePhe(4-F)][NMeNle][dP]DV[NMeF]E[dPip][dE]Y[Orn]CG-NH2; thioether N-13)

same assay, conditions: PD-L1-His 10 nM, PD-1-Ig 20 nM; read-out: HTRF Human PD-L1/PD-1 Binding Assay IC50

Row | IC50 | SMILES
11 | 5.3 nM | CCCC[C@H]1C(=O)N(C)[C@@H](CCCC)C(=O)N[C@@H](CCC(=O)O)C(=O)N[C@H](C(=O)NCC(N)=O)CSCC(=O)N[C@@H](Cc2ccc(O)cc2)C(=O)N2CCCC[C@H]2C(=O)N[C@@H](CC(=O)O)C(=O)N2CCC[C@H]2C(=O)N[C@@H](Cc2cnc[nH]2)C(=O)N[C@@H](CCC(N)=O)C(=O)N2C[C@H](O)C[C@H]2C(=O)N[C@@H](Cc2c[nH]c3ccccc23)C(=O)N[C@@H](CO)C(=O)N[C@@H](Cc2csc3ccccc23)C(=O)N1C [Example 1513] ({CH2CO}-Y[Pip]DPHQ[Hyp]WS[Bta][NMeNle][NMeNle]ECG-NH2; thioether N-14)
12 | 134 nM | CCCC[C@H]1C(=O)N(C)[C@@H](CCCC)C(=O)N[C@@H](CCCNC(=N)N)C(=O)NC(C(=O)NCC(N)=O)CSCC(=O)N[C@@H](Cc2ccc(O)cc2)C(=O)N(C)[C@@H](C)C(=O)N[C@@H](CC(N)=O)C(=O)N2CCC[C@H]2C(=O)N[C@@H](CCO)C(=O)N[C@@H](CO)C(=O)N2CCC[C@H]2C(=O)N[C@@H](Cc2c[nH]c3ccccc23)C(=O)N[C@@H](CO)C(=O)N[C@@H](Cc2csc3ccccc23)C(=O)N1C (stereo partly drawn) [Example 10022] ({CH2CO}-Y[NMeA]NP[hSer]SPWS[Bta][NMeNle][NMeNle]R[ξC]G-NH2; thioether N-14)
